The term IC50 denotes the concentration at which inhibition is half-maximal. By viability, T/C is commonly meant the result in the treated group divided by that in the control group, in per cent.

This experiment relates to OVCAR-5 complex spheroids, viability. The experiment is described as follows: Anticancer human tumor OVCAR-5 cell line growth inhibition.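 As to all read-outs here: spheroids exposed to agents for seven days.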 The settings on record: for viability, T/C: stronger effect = lower value. From the text:
Multicellular complex tumor spheroid response to LSD1 Inhibitor Iadademstat in combination with a variety of drugs and investigational agents in selected tumor cell lines
The current study was undertaken to assess response to LSD1 inhibitors in combination with standard-of-care drugs and investigational agents in solid tumor complex spheroid models as well as in the K-562 leukemia. Complex spheroids include a stromal component modeled by human endothelial cells (HUVEC) and fibroblasts modeled by human mesenchymal stem cells (MSCs). The concentration ranges selected for each drug and investigational agent were based upon clinically achievable concentrations if the clinical Cmax of the agent was known.
Compounds. The drugs and investigational agents used in this study are listed on Table 1. All of the agents used, including staurosporine (NSC755774) and gemcitabine (NSC613327), were obtained from the Developmental Therapeutics Program, NCI. FDA-approved anticancer drugs are available from the NCI at http://dtp.nci.nih.gov/branches/dscb/oncology_drugset_explanation.html. Drugs and investigational agents were >95% pure by proton nuclear magnetic resonance (NMR) and liquid chromatography/mass spectrometry (LC/MS). Stock solutions were prepared at 400x in DMSO, stored at -70 degrees C, and diluted in fresh medium prior to their use. The final concentration of DMSO in cell culture wells never exceeded 0.25% (v/v). The FDA-approved anticancer drug set is available from the Developmental Therapeutics Program at https://dtp.cancer.gov/organization/dscb/obtaining/available_plates.htm. All drugs and investigational agents were tested over a range starting from a high concentration at or near the clinical Cmax and decreasing in half-log increments. If the clinical Cmax for an agent had not been determined, the highest concentration tested was 10 microM.
Cell Lines. The patient-derived cancer cell (PDC) lines: 292921-168-R-J2-PDC, K24384-001-R-PDC, and 521955-158-R2-J5-PDC pancreatic carcinomas, 556581-035-R-J1 ovarian carcinoma, 324938-238-R-J1-PDC, 855422-203-R-J1-PDC and 883617-216-R-J1-PDC urothelial bladder carcinomas, 743489-274-T-PDC renal cell carcinoma, 138582-R-J1 Merkel cell tumor, K60290-347-R-J1 and K57222-313-R-J1-PDC glioblastomas, 653999-131-R-J2-PDC, LG0703-F948-PDC, and 349418-098-R-PDC non-small cell lung carcinomas, 885512-296-R-J2-PDC, 171881-019-R-J1-PDC breast carcinomas and 186277-243-T-J2-PDC and 233499-124-R-J2-PDC colon carcinomas were obtained from the NCI Patient-Derived Models Repository (PDMR, https://pdmr.cancer.gov). The established cell lines NCI/ADR-RES (RRID:CVCL_14520 and OVCAR-5 (RRID:CVCL_1628) ovarian carcinomas, 786-O (RRID:CVCL_1051) and A498 […] renal cell carcinoma, NCI-H211 (ATCC, cat. CRL-5824; RRID:CVCL_1529), NCI-H196 (ATCC, cat. CRL-5823, RRID:CVCL_1509), SW 1271 (ATCC, cat. CRL-2177, RRID:CVCL_1716) and NCI-H1876 (ATCC, cat. CRL-5902, RRID:CVCL_1503) small cell lung carcinomas, MDA-MB-231 (RRID:CVCL_0062) and MDA-MB-468 (RRID:CVCL_0419)breast carcinomas (10-12). Pooled donor human umbilical vein endothelial cells (HUVEC, Lonza, cat. CC-2519) and human mesenchymal stem cells (hMSC, Lonza, cat. PT-2501) were purchased from Lonza (Walkersville, MD).
Cell Culture. All cells were maintained in an incubator at 37 degrees C and 5% CO2 with 95% humidity. The PDC lines were cultured according to standard operating procedures established by the NCI PDMR (https://pdmr.cancer.gov). Briefly all PDCs were thawed and cultured in Matrigel-coated flasks prepared with a working solution of 1X Ham's F-12 nutrient mix, without supplementation (Invitrogen, Waltham, MA, cat. 11765054), 100 U/mL penicillin-streptomycin (Invitrogen, cat. 15140122), and 2.5% Matrigel (Corning Inc., Corning, NY, cat. 354248) for the first three passages. […]

Setting [1] is: curve of first compound, second compound 0.1 µM.
The mark [2] stands for this setting: curve of first compound, second compound 0.316 µM.
Where [3] appears, read: curve of first compound, second compound 1 µM.
Where [4] appears, read: curve of first compound, second compound 3.16 µM.
Where [5] appears, read: curve of first compound, second compound 10 µM.
Where [6] appears, read: second compound 0.1 µM, first compound 0.0316 µM.
Where [7] appears, read: second compound 0.1 µM, first compound 0.1 µM.
[8] abbreviates: second compound 0.1 µM, first compound 0.316 µM.
The mark [9] stands for this setting: second compound 0.1 µM, first compound 1 µM.
Setting [10] is: second compound 0.316 µM, first compound 0.0316 µM.
Setting [11] is: second compound 0.316 µM, first compound 0.1 µM.
[12] abbreviates: second compound 0.316 µM, first compound 0.316 µM.
Where [13] appears, read: second compound 0.316 µM, first compound 1 µM.
The mark [14] stands for this setting: second compound 1 µM, first compound 0.0316 µM.
The mark [15] stands for this setting: second compound 1 µM, first compound 0.1 µM.
The mark [16] stands for this setting: second compound 1 µM, first compound 0.316 µM.
[17] abbreviates: second compound 1 µM, first compound 1 µM.
Where [18] appears, read: second compound 3.16 µM, first compound 0.0316 µM.
Where [19] appears, read: second compound 3.16 µM, first compound 0.1 µM.
[20] abbreviates: second compound 3.16 µM, first compound 0.316 µM.
Setting [21] is: second compound 3.16 µM, first compound 1 µM.
The mark [22] stands for this setting: second compound 10 µM, first compound 0.0316 µM.
The mark [23] stands for this setting: second compound 10 µM, first compound 0.1 µM.
Where [24] appears, read: second compound 10 µM, first compound 0.316 µM.
Where [25] appears, read: second compound 10 µM, first compound 1 µM.

Values joined by “and” are separate entries in the source; they are usually repeats but may differ in a detail not shown here. Equal entries are not always repeated. Bounds are passed on as bounds.

On to `CC1(C)CCC(CN2CCN(c3ccc(C(=O)NS(=O)(=O)c4ccc(NCC5CCOCC5)c([N+](=O)[O-])c4)c(Oc4cnc5[nH]ccc5c4)c3)CC2)=C(c2ccc(Cl)cc2)C1` + NC1CC1c1ccc(-c2cccc(O)c2)cc1, for which the IC50 runs as follows: under setting [1], 7440 nM; under setting [2], 7760 nM; under setting [3], 7370 nM; under setting [4], 7610 nM; under setting [5], 7570 nM. In addition, the viability, T/C by setting is: under setting [6], 99.4%; under setting [7], 97.3%; under setting [8], 110%; under setting [9], 97.2%; (second compound 0.1 µM, first compound 3.16 µM) 103%; (second compound 0.1 µM, first compound 10 µM) 32.1%. For the same compound, the viability, T/C runs as follows: under setting [10], 107%; under setting [11], 112%; under setting [12], 106%; under setting [13], 101%; (second compound 0.316 µM, first compound 3.16 µM) 100%; (second compound 0.316 µM, first compound 10 µM) 35.6%. Besides, the viability, T/C under setting [14] was 110%; the viability, T/C under setting [15] is 92.4%; the viability, T/C under setting [16] is 93.3%; the viability, T/C under setting [17] is 105%; the viability, T/C (second compound 1 µM, first compound 3.16 µM) is 94.4%; the viability, T/C (second compound 1 µM, first compound 10 µM) was 33.7%. Besides, the viability, T/C was 103% under setting [18]; 86.9% under setting [19]; 88.5% under setting [20]; 106% under setting [21]; 96% (second compound 3.16 µM, first compound 3.16 µM); 35.7% (second compound 3.16 µM, first compound 10 µM). Besides, the viability, T/C under setting [22] is 89.3%; the viability, T/C under setting [23] was 85%; the viability, T/C under setting [24] was 85.9%; the viability, T/C under setting [25] was 86%; the viability, T/C (second compound 10 µM, first compound 3.16 µM) is 85%; the viability, T/C (second compound 10 µM, first compound 10 µM) is 38.9%.

Turning to `NS(=O)(=O)OCC1CC(n2ccc3c(NC4CCc5ccccc54)ncnc32)CC1O` (stereo unspecified), the viability, T/C reads like this: (compound 0.00949 µM) 105% and 120%; (compound 0.03 µM) 102% and 114%; (compound 0.0949 µM) 82.6% and 75.8%; (compound 0.3 µM) 37.4% and 25.6%; (compound 0.949 µM) 16.1% and 7.66%; (compound 3 µM) 9.41% and 4.92%. For the same compound, the IC50 (curve of compound) is 219 nM and 172 nM.

Take `COc1cc(Nc2ncc3c(n2)-c2ccc(Cl)cc2C(c2c(F)cccc2OC)=NC3)ccc1C(=O)O` + NC1CC1c1ccc(-c2cccc(O)c2)cc1: the IC50 reads like this: under setting [1], 86.2 nM; under setting [2], 98.9 nM; under setting [3], 62.3 nM; under setting [4], 54.5 nM; under setting [5], 47.7 nM. Further, the viability, T/C was 76.9% (second compound 0.1 µM, first compound 0.00316 µM); 73.1% (second compound 0.1 µM, first compound 0.01 µM); 60.4% under setting [6]; 47.3% under setting [7]; 47.1% under setting [8]; 39.8% under setting [9]. Also, the viability, T/C by setting is: (second compound 0.316 µM, first compound 0.00316 µM) 88.9%; (second compound 0.316 µM, first compound 0.01 µM) 84.4%; under setting [10], 63.9%; under setting [11], 50.1%; under setting [12], 49.6%; under setting [13], 44.6%. The viability, T/C runs as follows: (second compound 1 µM, first compound 0.00316 µM) 76.1%; (second compound 1 µM, first compound 0.01 µM) 82.1%; under setting [14], 57.4%; under setting [15], 46.4%; under setting [16], 47.8%; under setting [17], 40.1%. Moreover, the viability, T/C (second compound 3.16 µM, first compound 0.00316 µM) is 81.3%; the viability, T/C (second compound 3.16 µM, first compound 0.01 µM) was 72%; the viability, T/C under setting [18] was 53.6%; the viability, T/C under setting [19] is 46.1%; the viability, T/C under setting [20] is 44.3%; the viability, T/C under setting [21] is 42.1%. Besides, the viability, T/C runs as follows: (second compound 10 µM, first compound 0.00316 µM) 87.6%; (second compound 10 µM, first compound 0.01 µM) 72%; under setting [22], 50.7%; under setting [23], 50.3%; under setting [24], 49.7%; under setting [25], 43.7%.

Take `O=C(C=Cn1cnc(-c2cc(C(F)(F)F)cc(C(F)(F)F)c2)n1)NNc1cnccn1`: the viability, T/C reads like this: (compound 0.00316 µM) 91.8% and 90.3%; (compound 0.01 µM) 83.9% and 74.8%; (compound 0.0316 µM) 72.3% and 58.3%; (compound 0.1 µM) 53.3% and 44%; (compound 0.316 µM) 48.7% and 38.9%; (compound 1 µM) 40.4% and 34.1%. The IC50 (curve of compound) was 196 nM and 63.7 nM.

Turning to `CC(C)CC(NC(=O)CNC(=O)c1cc(Cl)ccc1Cl)B1OC(=O)CC(CC(=O)O)(C(=O)O)O1` (stereo unspecified), the viability, T/C reads like this: (compound 0.000316 µM) 94.7% and 103%; (compound 0.001 µM) 95.6% and 99.8%; (compound 0.00316 µM) 92.1% and 95.9%; (compound 0.01 µM) 80.1% and 77.8%; (compound 0.0316 µM) 85% and 71.1%; (compound 0.1 µM) 70.6% and 57.8%. Also, the IC50 (curve of compound) is above 100 nM.
